Tests used:
Experiment in all cases: KiNativ kinome profiling in PANC-1 lysate
Type in all cases: binding
SRPK1, SRPK2 = conditions: 5 µM; Lys1; FVAMKVVK
Procedure, shortened: (§1)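 PANC-1 lysates were incubated with 5 μM inhibitor or DMSO, then labeled with a desthiobiotin-ATP acyl-phosphate probe that biotinylates conserved kinase lysines. Tryptic peptides were streptavidin-enriched and quantified by LC-MS/MS, reported as % change in MS signal from duplicate treated and duplicate control samples.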

MAP2K3 = molecular target: T1, MAP2K3 (Homo sapiens, UniProt P46734)
T1 construct: endogenous in cells; host or cells: PANC-1 cell lysate
T1 sequence (P46734 1-347): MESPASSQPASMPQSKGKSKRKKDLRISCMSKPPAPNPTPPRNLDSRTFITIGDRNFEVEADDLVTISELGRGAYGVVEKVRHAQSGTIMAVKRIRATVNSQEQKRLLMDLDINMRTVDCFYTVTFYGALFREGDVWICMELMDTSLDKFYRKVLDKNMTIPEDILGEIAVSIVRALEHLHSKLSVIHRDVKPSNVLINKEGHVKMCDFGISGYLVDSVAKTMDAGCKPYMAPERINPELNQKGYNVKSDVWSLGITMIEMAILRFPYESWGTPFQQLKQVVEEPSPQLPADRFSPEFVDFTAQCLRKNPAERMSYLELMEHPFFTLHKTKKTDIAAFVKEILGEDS
Procedure, shortened: as §1

TAO2 = molecular target: T2, TAO2 (Homo sapiens, UniProt Q9UL54); conditions: Lys2
T2 construct: endogenous in cells; host or cells: PANC-1 cell lysate
Procedure, shortened: as §1

Erk1 = molecular target: T3, Erk1 (Homo sapiens, UniProt P27361); conditions: Lys2
T3 construct: endogenous in cells; host or cells: PANC-1 lysate
Procedure, shortened: as §1

CK1g2 = molecular target: T4, CK1g2 (Homo sapiens, UniProt P78368); conditions: Lys2
T4 construct: endogenous in cells; host or cells: PANC-1 cell lysate
Procedure, shortened: as §1

NEK3 = molecular target: T5, NEK3 (Homo sapiens, UniProt P51956); conditions: ATP Loop
T5 construct: endogenous in cells; host or cells: PANC-1 cell lysate
Procedure, shortened: as §1

p38d, p38g = conditions: 5 µM; Lys2; DLKPGNLAVNEDCELK
Procedure, shortened: as §1

MSK2 domain1 = molecular target: T6, MSK2 domain1 (Homo sapiens, UniProt O75676)
T6 construct: endogenous in cells; host or cells: PANC-1
Procedure, shortened: as §1

PIK3CA = molecular target: T7, PIK3CA (Homo sapiens, UniProt P42336); conditions: ATP
T7 construct: endogenous in cells; host or cells: PANC-1 cell lysate
Procedure, shortened: as §1

CHK2 = molecular target: T8, CHK2 (Homo sapiens, UniProt O96017)
T8 construct: endogenous in cells; host or cells: PANC-1 cell lysate
Procedure, shortened: as §1

RSK1 domain2 = molecular target: T9, RSK1 domain2 (Homo sapiens, UniProt Q15418); conditions: Lys2
T9 construct: endogenous in cells; host or cells: PANC-1 cell lysate
Procedure, shortened: as §1

ZC2/TNIK = molecular target: T10, ZC2/TNIK (Homo sapiens, UniProt Q9UKE5); conditions: Lys1
T10 construct: endogenous in cells; host or cells: PANC-1 cell lysate
Procedure, shortened: as §1

MPSK1 = molecular target: T11, MPSK1 (Homo sapiens, UniProt O75716); conditions: Lys2
T11 construct: endogenous in cells; host or cells: PANC-1
Procedure, shortened: as §1

Wnk1, Wnk2 = conditions: 5 µM; ATP Loop; GSFKTVYK
Procedure, shortened: as §1

PIP5K1A = molecular target: T12, PIP5K1A (Homo sapiens, UniProt Q99755); conditions: ATP
T12 construct: endogenous in cells; host or cells: PANC-1 cell lysate
Procedure, shortened: as §1

[1] = test system: MSK1 domain1, MSK2 domain1; conditions: 5 µM; ATP Loop; VLGTGAYGKVFLVR
Procedure, shortened: as §1

SLK = molecular target: T13, SLK (Homo sapiens, UniProt Q9H2G2)
T13 construct: endogenous in cells; host or cells: PANC-1 cell lysate
Procedure, shortened: as §1

PIK3C2B = molecular target: T14, PIK3C2B (Homo sapiens, UniProt O00750); conditions: ATP
T14 construct: endogenous in cells; host or cells: PANC-1 cell lysate
Procedure, shortened: as §1

QSK = molecular target: T15, QSK (Homo sapiens, UniProt Q9Y2K2); conditions: Lys1
T15 construct: endogenous in cells; host or cells: PANC-1 cell lysate
Procedure, shortened: as §1

SBK = molecular target: T16, SBK (Homo sapiens, UniProt Q52WX2); conditions: Lys2
T16 construct: endogenous in cells; host or cells: PANC-1 cell lysate
Procedure, shortened: as §1

Erk5 = molecular target: T17, Erk5 (Homo sapiens, UniProt Q13164); conditions: Lys2
T17 construct: endogenous in cells; host or cells: PANC-1 lysate
Procedure, shortened: as §1

ROCK1 = molecular target: T18, ROCK1 (Homo sapiens, UniProt Q13464); conditions: Other
T18 construct: endogenous in cells; host or cells: PANC-1 cell lysate
Procedure, shortened: as §1

BRAF, BRAF V600E = molecular target: T19, BRAF, BRAF V600E (Homo sapiens, UniProt P15056); conditions: Lys2
T19 construct: endogenous in cells; host or cells: PANC-1 cell lysate
Procedure, shortened: as §1

T6 sequence (O75676 whole entry, the tested form may be a part): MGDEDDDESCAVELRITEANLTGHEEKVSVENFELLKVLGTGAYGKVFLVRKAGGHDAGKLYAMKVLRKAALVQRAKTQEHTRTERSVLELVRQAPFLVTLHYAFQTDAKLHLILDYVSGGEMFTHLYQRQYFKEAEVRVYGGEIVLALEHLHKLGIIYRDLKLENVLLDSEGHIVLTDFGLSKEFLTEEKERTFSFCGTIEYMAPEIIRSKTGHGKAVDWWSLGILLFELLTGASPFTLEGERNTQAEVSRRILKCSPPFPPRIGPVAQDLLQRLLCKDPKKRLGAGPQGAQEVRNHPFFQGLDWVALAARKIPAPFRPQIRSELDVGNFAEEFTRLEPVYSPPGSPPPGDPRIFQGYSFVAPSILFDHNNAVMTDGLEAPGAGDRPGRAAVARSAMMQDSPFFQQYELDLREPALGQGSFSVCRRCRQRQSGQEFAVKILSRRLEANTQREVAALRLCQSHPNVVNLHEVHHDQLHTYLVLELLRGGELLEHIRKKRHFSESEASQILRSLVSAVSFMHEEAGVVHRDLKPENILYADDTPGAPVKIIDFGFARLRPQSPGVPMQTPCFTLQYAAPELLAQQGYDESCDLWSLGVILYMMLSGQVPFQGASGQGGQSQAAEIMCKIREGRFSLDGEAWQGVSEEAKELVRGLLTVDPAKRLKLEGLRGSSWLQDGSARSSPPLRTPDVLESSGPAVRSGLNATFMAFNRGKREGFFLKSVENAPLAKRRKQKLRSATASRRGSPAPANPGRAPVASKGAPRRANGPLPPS
T13 sequence (Q9H2G2 whole entry): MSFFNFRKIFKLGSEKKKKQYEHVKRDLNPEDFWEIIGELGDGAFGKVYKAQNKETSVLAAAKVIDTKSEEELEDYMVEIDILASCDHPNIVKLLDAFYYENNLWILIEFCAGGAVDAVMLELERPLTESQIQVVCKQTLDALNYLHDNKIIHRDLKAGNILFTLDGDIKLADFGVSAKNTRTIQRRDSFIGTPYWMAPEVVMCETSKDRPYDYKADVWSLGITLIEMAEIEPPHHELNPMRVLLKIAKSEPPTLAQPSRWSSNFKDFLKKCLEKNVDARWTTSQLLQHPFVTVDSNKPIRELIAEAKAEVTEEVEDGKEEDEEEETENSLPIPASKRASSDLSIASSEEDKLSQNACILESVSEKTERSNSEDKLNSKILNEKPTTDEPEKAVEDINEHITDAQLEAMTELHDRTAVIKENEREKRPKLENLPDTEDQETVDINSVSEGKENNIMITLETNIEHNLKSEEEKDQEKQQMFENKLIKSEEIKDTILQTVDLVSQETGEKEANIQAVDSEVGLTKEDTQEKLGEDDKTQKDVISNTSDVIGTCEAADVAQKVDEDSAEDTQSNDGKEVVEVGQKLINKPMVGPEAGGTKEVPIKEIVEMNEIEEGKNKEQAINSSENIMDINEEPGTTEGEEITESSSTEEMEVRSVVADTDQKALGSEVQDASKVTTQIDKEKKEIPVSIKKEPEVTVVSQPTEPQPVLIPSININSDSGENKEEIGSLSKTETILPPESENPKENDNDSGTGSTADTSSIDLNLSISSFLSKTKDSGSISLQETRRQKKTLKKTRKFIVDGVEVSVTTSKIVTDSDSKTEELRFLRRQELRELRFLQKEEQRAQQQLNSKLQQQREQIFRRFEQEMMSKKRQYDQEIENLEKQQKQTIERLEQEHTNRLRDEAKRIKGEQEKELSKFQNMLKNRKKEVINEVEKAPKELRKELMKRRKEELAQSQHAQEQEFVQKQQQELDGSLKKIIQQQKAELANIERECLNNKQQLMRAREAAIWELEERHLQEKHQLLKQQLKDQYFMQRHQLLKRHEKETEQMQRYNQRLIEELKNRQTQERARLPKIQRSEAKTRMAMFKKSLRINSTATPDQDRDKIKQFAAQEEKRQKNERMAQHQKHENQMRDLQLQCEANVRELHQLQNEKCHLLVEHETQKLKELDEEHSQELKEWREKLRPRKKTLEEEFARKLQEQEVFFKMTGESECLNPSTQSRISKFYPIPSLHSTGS
T8 sequence (O96017 whole entry): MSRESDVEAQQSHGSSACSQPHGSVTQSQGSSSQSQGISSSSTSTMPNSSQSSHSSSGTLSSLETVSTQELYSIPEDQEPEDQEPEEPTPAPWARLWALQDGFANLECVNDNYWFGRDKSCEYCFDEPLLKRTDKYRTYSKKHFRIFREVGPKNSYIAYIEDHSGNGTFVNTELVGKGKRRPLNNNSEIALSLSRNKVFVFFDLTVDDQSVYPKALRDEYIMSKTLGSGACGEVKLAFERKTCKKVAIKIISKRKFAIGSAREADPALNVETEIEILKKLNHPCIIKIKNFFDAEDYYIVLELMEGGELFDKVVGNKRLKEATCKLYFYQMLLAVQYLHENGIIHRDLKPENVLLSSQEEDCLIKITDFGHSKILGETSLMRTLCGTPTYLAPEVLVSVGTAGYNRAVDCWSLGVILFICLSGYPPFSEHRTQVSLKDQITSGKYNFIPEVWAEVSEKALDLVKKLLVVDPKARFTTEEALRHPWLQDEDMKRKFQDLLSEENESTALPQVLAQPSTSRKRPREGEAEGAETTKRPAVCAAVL
T4 sequence (P78368 whole entry): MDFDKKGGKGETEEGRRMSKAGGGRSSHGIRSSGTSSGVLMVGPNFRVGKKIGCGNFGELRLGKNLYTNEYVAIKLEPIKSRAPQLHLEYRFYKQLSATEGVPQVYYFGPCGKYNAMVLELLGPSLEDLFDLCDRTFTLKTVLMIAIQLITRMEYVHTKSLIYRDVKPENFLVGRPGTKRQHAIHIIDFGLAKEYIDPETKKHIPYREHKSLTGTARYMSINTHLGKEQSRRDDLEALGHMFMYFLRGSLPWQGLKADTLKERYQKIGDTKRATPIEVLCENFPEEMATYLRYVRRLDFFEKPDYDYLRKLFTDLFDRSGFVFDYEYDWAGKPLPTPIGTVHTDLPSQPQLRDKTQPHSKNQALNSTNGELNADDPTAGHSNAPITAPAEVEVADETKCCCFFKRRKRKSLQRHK
T5 sequence (P51956 whole entry): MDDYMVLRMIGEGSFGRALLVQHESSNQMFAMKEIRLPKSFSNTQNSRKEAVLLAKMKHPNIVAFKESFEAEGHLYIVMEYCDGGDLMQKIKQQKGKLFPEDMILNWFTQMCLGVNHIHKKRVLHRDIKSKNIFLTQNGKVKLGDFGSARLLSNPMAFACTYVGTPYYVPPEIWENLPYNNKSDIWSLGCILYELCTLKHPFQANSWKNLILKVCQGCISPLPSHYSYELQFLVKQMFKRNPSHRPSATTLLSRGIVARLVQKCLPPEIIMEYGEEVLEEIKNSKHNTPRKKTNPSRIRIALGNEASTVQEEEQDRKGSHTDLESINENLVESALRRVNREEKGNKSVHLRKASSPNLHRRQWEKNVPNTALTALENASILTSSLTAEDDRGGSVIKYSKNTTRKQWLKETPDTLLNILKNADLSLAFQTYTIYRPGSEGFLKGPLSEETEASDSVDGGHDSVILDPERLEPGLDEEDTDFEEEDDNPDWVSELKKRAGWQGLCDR
T17 sequence (Q13164 whole entry): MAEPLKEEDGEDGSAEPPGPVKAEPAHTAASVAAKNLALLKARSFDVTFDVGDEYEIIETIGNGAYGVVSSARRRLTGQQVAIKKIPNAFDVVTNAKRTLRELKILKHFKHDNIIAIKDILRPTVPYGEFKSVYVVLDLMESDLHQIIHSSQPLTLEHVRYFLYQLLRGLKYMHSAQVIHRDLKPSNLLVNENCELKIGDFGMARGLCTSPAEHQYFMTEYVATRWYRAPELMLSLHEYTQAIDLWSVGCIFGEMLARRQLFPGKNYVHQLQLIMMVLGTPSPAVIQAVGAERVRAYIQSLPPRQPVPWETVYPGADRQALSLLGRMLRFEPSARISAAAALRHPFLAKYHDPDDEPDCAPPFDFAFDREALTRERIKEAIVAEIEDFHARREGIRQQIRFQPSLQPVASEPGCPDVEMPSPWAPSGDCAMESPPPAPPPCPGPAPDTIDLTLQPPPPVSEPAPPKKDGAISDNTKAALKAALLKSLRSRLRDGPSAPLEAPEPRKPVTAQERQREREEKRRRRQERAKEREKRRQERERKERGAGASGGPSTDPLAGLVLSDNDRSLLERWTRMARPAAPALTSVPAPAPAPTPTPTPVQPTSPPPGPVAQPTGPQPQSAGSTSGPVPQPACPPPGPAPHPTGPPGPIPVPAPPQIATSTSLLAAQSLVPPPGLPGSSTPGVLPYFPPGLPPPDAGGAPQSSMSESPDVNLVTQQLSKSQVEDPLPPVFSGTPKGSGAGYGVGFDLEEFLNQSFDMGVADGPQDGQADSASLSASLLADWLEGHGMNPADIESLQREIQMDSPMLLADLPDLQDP
T12 sequence (Q99755 whole entry): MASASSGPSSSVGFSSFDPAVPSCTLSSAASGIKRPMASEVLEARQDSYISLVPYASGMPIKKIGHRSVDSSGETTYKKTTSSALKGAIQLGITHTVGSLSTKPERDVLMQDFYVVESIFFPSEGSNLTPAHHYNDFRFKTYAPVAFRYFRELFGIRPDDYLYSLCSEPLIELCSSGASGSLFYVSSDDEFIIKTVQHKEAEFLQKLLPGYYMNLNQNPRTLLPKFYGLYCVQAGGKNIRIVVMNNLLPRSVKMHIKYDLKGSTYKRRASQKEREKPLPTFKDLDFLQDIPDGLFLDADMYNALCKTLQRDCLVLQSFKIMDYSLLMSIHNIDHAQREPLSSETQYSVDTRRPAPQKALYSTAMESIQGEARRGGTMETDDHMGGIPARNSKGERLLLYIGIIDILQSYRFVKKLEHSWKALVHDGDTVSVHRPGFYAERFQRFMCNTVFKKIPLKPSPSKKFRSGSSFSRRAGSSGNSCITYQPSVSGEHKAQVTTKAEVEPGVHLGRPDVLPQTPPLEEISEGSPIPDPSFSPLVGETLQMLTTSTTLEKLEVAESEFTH

Cn1cc(-c2cnc3ccc(NC(=O)Nc4ccc(F)c(C(F)(F)F)c4)cc3n2)cn1 [51-106, 1-(4-Fluoro-3-(trifluoromethyl)phenyl)-3-(3-(1-methyl-1H-pyrazol-4-yl)quinoxalin-6-yl)urea]
% Inhibition (SRPK1, SRPK2): NB (NB = No Binding (≤ 0))
inhibition at 5 µM (MAP2K3; ATP Loop, MCDFGISGYLVDSVAKTMDAGCKPYMAPER): ≤ 0%
inhibition at 5 µM (MAP2K3; Lys1, HAQSGTIMAVKR): ≤ 0%
inhibition at 5 µM (MAP2K3; Lys2, DVKPSNVLINK): 18.5%
inhibition at 5 µM (TAO2): 5.5%
inhibition at 5 µM (Erk1): ≤ 0%
inhibition at 5 µM (CK1g2): ≤ 0%
inhibition at 5 µM (NEK3): 5.1%
% Inhibition (p38d, p38g): NB (NB = No Binding (≤ 0))
inhibition at 5 µM (MSK2 domain1; Lys1, LYAMKVLR): 5.5%
inhibition at 5 µM (MSK2 domain1; Lys2, DLKLENVLLDSEGHIVLTDFGLSK): ≤ 0%
inhibition at 5 µM (PIK3CA): ≤ 0%
inhibition at 5 µM (CHK2; Lys1, VAIKIISK): 14.8%
inhibition at 5 µM (CHK2; Lys2, DLKPENVLLSSQEEDCLIK): ≤ 0%
inhibition at 5 µM (RSK1 domain2): 6.9%
inhibition at 5 µM (ZC2/TNIK): 11.2%
inhibition at 5 µM (MPSK1): ≤ 0%
% Inhibition (Wnk1, Wnk2): NB (NB = No Binding (≤ 0))
inhibition at 5 µM (PIP5K1A): 8.7%
% Inhibition [1]: 0.1%
inhibition at 5 µM (SLK; Lys1, AQNKETSVLAAAKVIDTK): ≤ 0%
inhibition at 5 µM (SLK; Lys2, DLKAGNILFTLDGDIK): 7%
inhibition at 5 µM (PIK3C2B): 2.9%
inhibition at 5 µM (QSK): ≤ 0%
inhibition at 5 µM (SBK): ≤ 0%
inhibition at 5 µM (Erk5): 11.6%
inhibition at 5 µM (ROCK1): ≤ 0%
inhibition at 5 µM (BRAF, BRAF V600E): 0.5%

— paper PMC12073402, “A Selective MAP3K1 Inhibitor Facilitates Discovery of NPM1 as a Member of the Network” (Molecules, 2025)
